In US9763445B2, “Safened herbicidal compositions comprising a pyridine carboxylic acid herbicide” (Dow AgroSciences, LLC, priority 2014, dated 2017):

Experiments:
corn/maize (ZEAMX) = experiment: Postemergence greenhouse trial, % visual injury on corn/maize; format: in vivo, Zea mays; settings: for % visual injury, observed (Ob): ZEAMX; for % visual injury, Ob: alone, 35 g/ha
Method: (§1) Seeds of the desired test plant species were planted in Sun Gro MetroMix® 306 planting mixture, which typically has a pH of 6.0 to 6.8 and an organic matter content of about 30 percent, in plastic pots with a surface area of 103.2 square centimeters (cm^2). When required to ensure good germination and healthy plants, a fungicide treatment and/or other chemical or physical treatment was applied. The plants were grown for 7-36 days (d) in a greenhouse with an approximate 14-hour (h) photoperiod which was maintained at about 23° C. during the day and 22° C. during the night. Nutrients and water were added on a regular basis and supplemental lighting was provided with overhead metal halide 1000-Watt lamps as necessary. The plants were employed for testing when they reached the second or third true leaf stage.
(§2) Weighed amounts of technical material were dissolved in a volume of 97:3 volume per volume (v/v) acetone/dimethyl sulfoxide (DMSO) to stock solutions. […] The concentrated stock solutions were diluted with an aqueous mixture of 1.5% v/v of Agri-dex crop oil concentrate to provide the appropriate application rates. Compound requirements are based upon a 12 milliliter (mL) application volume at a rate of 187 liters per hectare (L/ha). Stocks solutions of the safeners were prepared following the same procedure. Spray solutions of the safeners and experimental compound mixtures were prepared by adding the stock solutions to the appropriate amount of dilution solution to form a 12 mL spray solution in two-way combinations. Formulated compounds were applied to the plant material with an overhead Mandel track sprayer equipped with 8002E nozzles calibrated to deliver 187 L/ha over an application area of 0.503 square meters (m^2) at a spray height of 18 inches (43 centimeters (cm)) above average plant canopy. Control plants were sprayed in the same manner with the solvent blank. All herbicide application (component a) rates are in g ae/ha and all safener (component b) rates are in g ai/ha.
(§3) The treated plants and control plants were placed in a greenhouse as described above and watered by sub-irrigation to prevent wash-off of the test compounds. After 20-22 d, the condition of the test plants as compared with that of the control plants was determined visually and scored on a scale of 0 to 100 percent where 0 corresponds to no injury and 100 corresponds to complete kill. The condition of the test plants was compared with that of the control plants as determined visually and scored on a scale of 0 to 100 percent, where 0 corresponds to no injury and 100 corresponds to complete kill. Colby's equation was used to determine the herbicidal effects expected from the mixtures.
(§4) The safener cloquintocet-mexyl was combined with compound 1, compound 2, compound 4, compound 5, and compound 6, and applied to corn/maize (ZEAMX) and spring wheat (TRZAS) and the phytotoxicity of the herbicidal compositions was measured. In addition, the efficacy of the herbicidal composition on velvetleaf (ABUTH, Abutilon theophrasti), pigweed (AMARE, Amaranthus retroflexus), winter rape (BRSNW, Brassica napus), lambsquarters (CHEAL, Chenopodium album), thistle (CIRAR, Cirsium arvense), nutsedge (CYPES, Cyperus esculentus), poinsettia (EPHHL, Euphorbia heterophylla), wild buckwheat (POLCO, Polygonum convolvulus), giant foxtail (SETFA, Setaria faberi), and chickweed (STEME, Stellaria media) was evaluated. […]

winter wheat (TRZAW) = experiment: Postemergence greenhouse trial, % visual injury on winter wheat; format: in vivo, Triticum aestivum
Method: as §1, §2, §3
(§5) The safener cloquintocet-mexyl was combined with compound 1, compound 2, compound 3, compound 7, compound 8, compound 9, compound 10, compound 11, compound 12, compound 13, compound 14, compound 15, compound 16, compound 17, compound 18, compound 19, and compound 20, and applied to spring wheat (TRZAS), winter wheat (TRZAW), and spring barley (HORVS) and the phytotoxicity of the herbicidal compositions was measured. […]

shepherd's purse (CAPBP) = experiment: Postemergence greenhouse trial, % visual injury on shepherd's purse; format: in vivo, Capsella bursa-pastoris
Method: as §1, §2, §3, §5

prickly lettuce (LACSE) = experiment: Postemergence greenhouse trial, % visual injury on prickly lettuce; format: in vivo, Lactuca serriola
Method: as §1, §2
as §3, with “mixtures. […]” for “mixtures.”

common sorghum (SORVU) = experiment: Postemergence greenhouse trial, % visual injury on common sorghum; format: in vivo, Sorghum vulgare; settings: SORVU
Method: as §1, §2
as §3, with “mixtures. […]” for “mixtures.”
The safener cloquintocet-acid and a number of agriculturally acceptable esters and salts (-mexyl, -dimethylammonium salt and -triethylammonium salt) were combined in varying ratios with compound 1 and applied to spring wheat (TRZAS), winter wheat (TRZAW), and spring barley (HORVS), and the phytotoxicity of the herbicidal compositions was measured. In addition, the efficacy of the herbicidal composition on pigweed (AMARE, Amaranthus retroflexus), nutsedge (CYPES, Cyperus esculentus), common sunflower (HELAN, Helianthus annuus), and common sorghum (SORVU, Sorghum vulgare).

chickweed (STEME) = experiment: Postemergence greenhouse trial, % visual injury on chickweed; format: in vivo, Stellaria media; settings: for % visual injury, observed (Ob): STEME
Method: as §1, §2, §3, §4

wild chamomile (MATCH) = experiment: Postemergence greenhouse trial, % visual injury on wild chamomile; format: in vivo, Matricaria chamomilla; settings: for % visual injury, Ob: CQC-m 0
Method: as §1, §2
as §3, with “mixtures. […]” for “mixtures.”

[1] = compound 2 4.380 + CQC-m 0 g/ha
[2] = CAPBP, compound 4.380 g/ha, CQC-m 0
[3] = CAPBP, compound 17.5 g/ha, CQC-m 0
[4] = CAPBP, compound 70 g/ha, CQC-m 0

With Nc1c(F)c(-c2ccc3cc[nH]c3c2F)nc(C(=O)O)c1Cl [compound 1] the “% visual injury, observed (Ob)” value (corn/maize (ZEAMX); compound 1 alone 20 g/ha) was 3%, the “% visual injury, observed (Ob)” value (corn/maize (ZEAMX); compound 1 alone 40 g/ha) was 30% and the “% visual injury, Ob” value (corn/maize (ZEAMX)) was 40%. The “% visual injury, observed (Ob)” value (winter wheat (TRZAW); TRZAW, compound 1 alone 20 g/ha) was 13%, the “% visual injury, observed (Ob)” value (winter wheat (TRZAW); TRZAW, compound 1 alone 40 g/ha) was 15% and the “% visual injury, Ob” value (winter wheat (TRZAW); alone, 35 g/ha) was 40%. The “% visual injury, Ob” value (winter wheat (TRZAW); alone, 70 g/ha) was 50%, the “% visual injury, Ob” value (shepherd's purse (CAPBP); alone, 4.375 g/ha) was 70% and the “% visual injury, Ob” value (shepherd's purse (CAPBP); alone, 8.75 g/ha) was 100%. For the same compound, the “% visual injury, Ob” value (shepherd's purse (CAPBP); alone, 17.5 g/ha) was 100%, the “% visual injury, Ob” value (shepherd's purse (CAPBP); alone, 35 g/ha) was 100% and the “% visual injury, Ob” value (shepherd's purse (CAPBP); alone, 70 g/ha) was 100%. The “% visual injury, Ob” value (prickly lettuce (LACSE); alone, 4.375 g/ha) was 70%, the “% visual injury, Ob” value (prickly lettuce (LACSE); alone, 8.75 g/ha) was 93% and the “% visual injury, Ob” value (prickly lettuce (LACSE); alone, 17.5 g/ha) was 100%. The “% visual injury, Ob” value (prickly lettuce (LACSE); alone, 35 g/ha) was 100%, the “% visual injury, Ob” value (prickly lettuce (LACSE); alone, 70 g/ha) was 100% and the “% visual injury, observed (Ob)” value (common sorghum (SORVU); compound 1 alone 20 g/ha) was 18%. The “% visual injury, observed (Ob)” value (common sorghum (SORVU); compound 1 alone 40 g/ha) was 68% and the “% visual injury, Ob” value (chickweed (STEME); alone, 35 g/ha) was 100%.
In the case of Nc1c(F)c(-c2ccc3cc[nH]c3c2F)nc(C(=O)OCc2ccccc2)c1Cl [compound 2], the “% visual injury, Ob” value (corn/maize (ZEAMX)) is reported as 35%, the “% visual injury, observed (Ob)” value (winter wheat (TRZAW); TRZAW, compound 2 35 + CQC-m 0 g/ha) is reported as 20% and the “% visual injury, observed (Ob)” value (winter wheat (TRZAW); TRZAW, compound 2 70 + CQC-m 0 g/ha) is reported as 30%. The “% visual injury, observed (Ob)” value (winter wheat (TRZAW); TRZAW, compound 2 140 + CQC-m 0 g/ha) was 50%, the “% visual injury, observed (Ob)” value (prickly lettuce (LACSE); LACSE, compound 2 4.380 + CQC-m 0 g/ha) was 40% and the “% visual injury, observed (Ob)” value (prickly lettuce (LACSE); LACSE, compound 2 8.75 + CQC-m 0 g/ha) was 99%. For the same compound, the “% visual injury, observed (Ob)” value (prickly lettuce (LACSE); LACSE, compound 2 17.5 + CQC-m 0 g/ha) was 99%, the “% visual injury, observed (Ob)” value (prickly lettuce (LACSE); LACSE, compound 2 35 + CQC-m 0 g/ha) was 100% and the “% visual injury, observed (Ob)” value (prickly lettuce (LACSE); LACSE, compound 2 70 + CQC-m 0 g/ha) was 100%. For the same compound, the “% visual injury, observed (Ob)” value (wild chamomile (MATCH); [1]) was 30%, the “% visual injury, observed (Ob)” value (wild chamomile (MATCH); compound 2 8.75 + CQC-m 0 g/ha) was 58% and the “% visual injury, observed (Ob)” value (wild chamomile (MATCH); compound 2 17.5 + CQC-m 0 g/ha) was 91%. For the same compound, the “% visual injury, observed (Ob)” value (wild chamomile (MATCH); compound 2 35 + CQC-m 0 g/ha) was 98%, the “% visual injury, observed (Ob)” value (wild chamomile (MATCH); compound 2 70 + CQC-m 0 g/ha) was 100% and the “% visual injury, observed (Ob)” value (chickweed (STEME); [1]) was 25%. For the same compound, the “% visual injury, observed (Ob)” value (chickweed (STEME); compound 2 8.75 + CQC-m 0 g/ha) was 68%, the “% visual injury, observed (Ob)” value (chickweed (STEME); compound 2 17.5 + CQC-m 0 g/ha) was 97% and the “% visual injury, observed (Ob)” value (chickweed (STEME); compound 2 35 + CQC-m 0 g/ha) was 100%. For the same compound, the “% visual injury, observed (Ob)” value (chickweed (STEME); compound 2 70 + CQC-m 0 g/ha) was 100%.
With CO/C=N/c1c(F)c(-c2ccc3cc[nH]c3c2F)nc(C(=O)OC)c1Cl [compound 10] the “% visual injury, Ob” value (shepherd's purse (CAPBP); [2]) was 30%, the “% visual injury, Ob” value (shepherd's purse (CAPBP); [3]) was 100% and the “% visual injury, Ob” value (shepherd's purse (CAPBP); [4]) was 100%. For the same compound, the “% visual injury, Ob” value (prickly lettuce (LACSE); LACSE, compound 4.380 g/ha, CQC-m 0) was 95%, the “% visual injury, Ob” value (prickly lettuce (LACSE); LACSE, compound 8.75 g/ha, CQC-m 0) was 100% and the “% visual injury, Ob” value (prickly lettuce (LACSE); LACSE, compound 17.5 g/ha, CQC-m 0) was 100%. The “% visual injury, Ob” value (prickly lettuce (LACSE); LACSE, compound 35 g/ha, CQC-m 0) was 100% and the “% visual injury, Ob” value (prickly lettuce (LACSE); LACSE, compound 70 g/ha, CQC-m 0) was 100%.
In the case of COC(=O)c1nc(-c2ccc3cc[nH]c3c2F)c(F)c(N)c1OC [compound 12], the “% visual injury, Ob” value (shepherd's purse (CAPBP); [2]) is reported as 70%, the “% visual injury, Ob” value (shepherd's purse (CAPBP); [3]) is reported as 100% and the “% visual injury, Ob” value (shepherd's purse (CAPBP); [4]) is reported as 100%. The “% visual injury, Ob” value (wild chamomile (MATCH); compound 4.380 g/ha) was 5%, the “% visual injury, Ob” value (wild chamomile (MATCH); compound 8.75 g/ha) was 3% and the “% visual injury, Ob” value (wild chamomile (MATCH); compound 17.5 g/ha) was 7%. The “% visual injury, Ob” value (wild chamomile (MATCH); compound 35 g/ha) was 10% and the “% visual injury, Ob” value (wild chamomile (MATCH); compound 70 g/ha) was 13%.
In the case of COc1c(C(=O)O)nc(-c2ccc3cc[nH]c3c2F)c(F)c1N [compound 13], the “% visual injury, Ob” value (winter wheat (TRZAW); TRZAW, compound 35 g/ha, CQC-m 0 g/ha) is reported as 70%, the “% visual injury, Ob” value (winter wheat (TRZAW); TRZAW, compound 70 g/ha, CQC-m 0 g/ha) is reported as 80% and the “% visual injury, Ob” value (prickly lettuce (LACSE); LACSE, compound 4.375 g/ha, CQC-m 0 g/ha) is reported as 85%. The “% visual injury, Ob” value (prickly lettuce (LACSE); LACSE, compound 8.75 g/ha, CQC-m 0 g/ha) was 93%, the “% visual injury, Ob” value (prickly lettuce (LACSE); LACSE, compound 17.5 g/ha, CQC-m 0 g/ha) was 95% and the “% visual injury, Ob” value (prickly lettuce (LACSE); LACSE, compound 35 g/ha, CQC-m 0 g/ha) was 95%. The “% visual injury, Ob” value (prickly lettuce (LACSE); LACSE, compound 70 g/ha, CQC-m 0 g/ha) was 100%.
